For this test, the target named is epidermal growth factor receptor (EGFR) tyrosine kinase (Homo sapiens, UniProt P00533). The test is described as follows: fluorescence tyrosine kinase assay (Antibody Beacon detection), dose-response. It is filed as biochemical.
epidermal growth factor receptor (EGFR) tyrosine kinase, sequence (P00533 25-1210): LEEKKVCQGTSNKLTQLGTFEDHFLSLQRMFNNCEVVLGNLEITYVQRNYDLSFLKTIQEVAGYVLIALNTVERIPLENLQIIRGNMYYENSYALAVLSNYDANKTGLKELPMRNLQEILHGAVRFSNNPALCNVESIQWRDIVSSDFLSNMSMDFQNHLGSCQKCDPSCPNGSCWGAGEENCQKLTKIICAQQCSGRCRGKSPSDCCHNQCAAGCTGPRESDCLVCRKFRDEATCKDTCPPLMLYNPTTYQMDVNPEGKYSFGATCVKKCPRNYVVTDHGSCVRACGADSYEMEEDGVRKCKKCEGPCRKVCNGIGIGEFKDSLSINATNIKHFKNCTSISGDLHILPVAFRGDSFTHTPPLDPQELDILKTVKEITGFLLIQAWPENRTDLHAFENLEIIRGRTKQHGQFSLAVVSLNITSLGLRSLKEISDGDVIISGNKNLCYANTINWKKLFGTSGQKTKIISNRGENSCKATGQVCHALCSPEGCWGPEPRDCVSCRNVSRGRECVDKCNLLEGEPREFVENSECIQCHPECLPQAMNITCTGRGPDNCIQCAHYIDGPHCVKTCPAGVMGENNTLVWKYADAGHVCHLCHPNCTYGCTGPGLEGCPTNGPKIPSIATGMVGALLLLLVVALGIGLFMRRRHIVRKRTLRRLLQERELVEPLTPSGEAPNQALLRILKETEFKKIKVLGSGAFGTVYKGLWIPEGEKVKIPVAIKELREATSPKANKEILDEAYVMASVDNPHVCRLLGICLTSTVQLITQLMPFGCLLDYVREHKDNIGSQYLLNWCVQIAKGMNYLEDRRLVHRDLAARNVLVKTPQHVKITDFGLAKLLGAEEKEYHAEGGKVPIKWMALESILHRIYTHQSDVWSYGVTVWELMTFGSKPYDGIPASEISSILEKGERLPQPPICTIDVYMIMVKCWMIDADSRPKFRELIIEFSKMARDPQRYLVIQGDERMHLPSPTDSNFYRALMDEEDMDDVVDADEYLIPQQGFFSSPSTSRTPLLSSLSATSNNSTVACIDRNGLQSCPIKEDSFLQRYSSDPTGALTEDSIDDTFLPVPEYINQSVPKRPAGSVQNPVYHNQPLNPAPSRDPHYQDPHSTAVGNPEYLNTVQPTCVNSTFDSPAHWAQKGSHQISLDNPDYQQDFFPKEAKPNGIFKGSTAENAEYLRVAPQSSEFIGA

With `O=c1c2cccc(O)c2oc2cccc(O)c12` [compound 1, 1,5-dihydroxyxanthone], the IC50 – broadly, the midpoint of a concentration-inhibition curve – came out at 90.3 nM.
The molecule `O=c1c2cc(O)ccc2oc2cccc(O)c12` [compound 2, 1,7-dihydroxyxanthone] showed an IC50 of 223 nM.
